Assay results: US20230338307A1, “PROPHYLACTIC AGENT, AMELIORATING AGENT, AND THERAPEUTIC AGENT FOR DRY EYE” (TSUBOTA LABORATORY, INC., priority 2020, published 2023)

Experiments:
dry eye model [1] = assay: Fluorescein staining score (corneal damage), dry eye model by systemic erlotinib (Example 3); type: in vivo, mice; details: 0.003% (w/v) apocynin eye drop twice a day, one week after start, FIG. 6
Description: (§1) After acclimating male C57BL6 mice (7 weeks old) to the experimental environment, those with almost uniform body weight values and no eye abnormalities were divided into the following 3 groups (n=4). • 7 weeks old/normal (non-dry eye group) • 7 weeks old/dry eye model+control (solvent eye drop) group • 7 weeks old/dry eye model+apocynin eye drop group The dry eye model was prepared by dissolving erlotinib at a concentration of 5 mg/ml in 0.5% methylcellulose solution and administering it by intraperitoneal injection at a concentration of 50 mg/kg/day daily from the start of the study. The solvent 0.5% methylcellulose solution was similarly administered to the normal non-administration group. After one week of administration of erlotinib, the control group received PBS alone, and the test group received a solution of 0.003% (w/v) apocynin suspended in PBS twice a day at both eyes with 3 μL each. One week after the start of instillation, 1 μL of 0.1% sodium fluorescein solution was instilled into each of both eyes under isoflurane anesthesia, and the BUT test was performed under a blue filter using a slit lamp (Kowa Co., Ltd., SL-17) (FIG. 5). In Example 3, one week after the start of apocynin instillation, photographs were taken under isoflurane anesthesia, and the degree of corneal damage was scored (FIG. 6).

dry eye model [2] = assay: Tear film breakup time (BUT) test, dry eye model by erlotinib instillation (Example 1); type: in vivo; details: 0.003% (w/v) apocynin in PBS, 3 μL twice daily, two weeks after start of instillation; erlotinib-instilled C57BL6 mice; FIG. 1
Description: (§2) After acclimating male C57BL6 mice (7 weeks old) to the experimental environment, those with almost uniform body weight values and no eye abnormalities were divided into the following 3 groups (n=5). • 7 weeks old/normal (non-dry eye group) • 7 weeks old/dry eye model+control (solvent eye drop) group • 7 weeks old/dry eye model+apocynin eye drop group The dry eye model was created by daily instillation of an EGF receptor inhibitor (erlotinib) based on the method of Yang et al. In this model, administration of erlotinib causes dry eye symptoms such as shortened BUT, decreased tear volume, and corneal damage after 1 week of administration (Non-patent Document 3). After 20 μM of erlotinib was instilled for 2 weeks, the control group received PBS alone, and the test group received 3 μL of a suspension of 0.003% (w/v) apocynin in PBS twice daily. Two weeks after the start of instillation, 1 μL of 0.1% sodium fluorescein solution was instilled into each of both eyes under isoflurane anesthesia, and a BUT test was performed using a slit lamp (Kowa Co., Ltd., SL-17) (FIG. 1). […] Under anesthesia, the tip of a Schirmer test paper cut to 1 mm width was inserted into the conjunctival sac of the lower eyelid of the mouse, the test paper was removed after 5 minutes, the length of the wetted part was read in units of 0.5 mm, and the value was used as the tear volume (FIG. 2).

dry eye model [3] = assay: Fluorescein staining score (corneal epithelial damage), dry eye model by erlotinib instillation (Example 1); type: in vivo; details: 0.003% (w/v) apocynin eye drop twice daily, two weeks; erlotinib-instilled mice; FIG. 3
Description: as §2, with “daily.” for “daily. Two weeks after the start of instillation, 1 μL of 0.1% sodium fluorescein solution was instilled into each of both eyes under isoflurane anesthesia, and a BUT test was performed using a slit lamp (Kowa Co., Ltd., SL-17) (FIG. 1).”, “2). In the dry eye model prepared in Example 1, after BUT measurement, fluorescein-stained images were photographed under a blue filter using a slit lamp (Kowa Co., Ltd., SL-17), and corneal epithelial damage was analyzed (FIG. 3). […]” for “2).”

dry eye model [4] = assay: Tear film breakup time (BUT) test, dry eye model by systemic (intraperitoneal) erlotinib (Example 3); type: in vivo, mice; details: 0.003% (w/v) apocynin in PBS, 3 μL twice a day, one week after start; erlotinib 50 mg/kg/day i.p. model; FIG. 5
Description: as §1, with “5).” for “5). In Example 3, one week after the start of apocynin instillation, photographs were taken under isoflurane anesthesia, and the degree of corneal damage was scored (FIG. 6).”

Structure (SMILES): COc1cc(C(C)=O)ccc1O [apocynin, 4-hydroxy-3-methoxyacetophenone]
- corneal epithelial damage (fluorescein staining score) (dry eye model [1]): significantly improved
- tear film breakup time (BUT) (dry eye model [2]): improved the shortening of BUT
- corneal epithelial damage (fluorescein staining score) (dry eye model [3]): significant improvement was observed
- tear film breakup time (BUT) (dry eye model [4]): significantly improved
